{"source": "paper PMC6934184", "about": "“Selective DNA-PKcs inhibition extends the therapeutic index of localized radiotherapy and chemotherapy” (The Journal of Clinical Investigation, 2019)", "molecular_target": "T1, WNK3 (Homo sapiens, UniProt Q9BYP7)", "T1 construct": "purchased Thermo Fisher Scientific (Life Technologies) SelectScreen", "T1 sequence (Q9BYP7 whole entry)": "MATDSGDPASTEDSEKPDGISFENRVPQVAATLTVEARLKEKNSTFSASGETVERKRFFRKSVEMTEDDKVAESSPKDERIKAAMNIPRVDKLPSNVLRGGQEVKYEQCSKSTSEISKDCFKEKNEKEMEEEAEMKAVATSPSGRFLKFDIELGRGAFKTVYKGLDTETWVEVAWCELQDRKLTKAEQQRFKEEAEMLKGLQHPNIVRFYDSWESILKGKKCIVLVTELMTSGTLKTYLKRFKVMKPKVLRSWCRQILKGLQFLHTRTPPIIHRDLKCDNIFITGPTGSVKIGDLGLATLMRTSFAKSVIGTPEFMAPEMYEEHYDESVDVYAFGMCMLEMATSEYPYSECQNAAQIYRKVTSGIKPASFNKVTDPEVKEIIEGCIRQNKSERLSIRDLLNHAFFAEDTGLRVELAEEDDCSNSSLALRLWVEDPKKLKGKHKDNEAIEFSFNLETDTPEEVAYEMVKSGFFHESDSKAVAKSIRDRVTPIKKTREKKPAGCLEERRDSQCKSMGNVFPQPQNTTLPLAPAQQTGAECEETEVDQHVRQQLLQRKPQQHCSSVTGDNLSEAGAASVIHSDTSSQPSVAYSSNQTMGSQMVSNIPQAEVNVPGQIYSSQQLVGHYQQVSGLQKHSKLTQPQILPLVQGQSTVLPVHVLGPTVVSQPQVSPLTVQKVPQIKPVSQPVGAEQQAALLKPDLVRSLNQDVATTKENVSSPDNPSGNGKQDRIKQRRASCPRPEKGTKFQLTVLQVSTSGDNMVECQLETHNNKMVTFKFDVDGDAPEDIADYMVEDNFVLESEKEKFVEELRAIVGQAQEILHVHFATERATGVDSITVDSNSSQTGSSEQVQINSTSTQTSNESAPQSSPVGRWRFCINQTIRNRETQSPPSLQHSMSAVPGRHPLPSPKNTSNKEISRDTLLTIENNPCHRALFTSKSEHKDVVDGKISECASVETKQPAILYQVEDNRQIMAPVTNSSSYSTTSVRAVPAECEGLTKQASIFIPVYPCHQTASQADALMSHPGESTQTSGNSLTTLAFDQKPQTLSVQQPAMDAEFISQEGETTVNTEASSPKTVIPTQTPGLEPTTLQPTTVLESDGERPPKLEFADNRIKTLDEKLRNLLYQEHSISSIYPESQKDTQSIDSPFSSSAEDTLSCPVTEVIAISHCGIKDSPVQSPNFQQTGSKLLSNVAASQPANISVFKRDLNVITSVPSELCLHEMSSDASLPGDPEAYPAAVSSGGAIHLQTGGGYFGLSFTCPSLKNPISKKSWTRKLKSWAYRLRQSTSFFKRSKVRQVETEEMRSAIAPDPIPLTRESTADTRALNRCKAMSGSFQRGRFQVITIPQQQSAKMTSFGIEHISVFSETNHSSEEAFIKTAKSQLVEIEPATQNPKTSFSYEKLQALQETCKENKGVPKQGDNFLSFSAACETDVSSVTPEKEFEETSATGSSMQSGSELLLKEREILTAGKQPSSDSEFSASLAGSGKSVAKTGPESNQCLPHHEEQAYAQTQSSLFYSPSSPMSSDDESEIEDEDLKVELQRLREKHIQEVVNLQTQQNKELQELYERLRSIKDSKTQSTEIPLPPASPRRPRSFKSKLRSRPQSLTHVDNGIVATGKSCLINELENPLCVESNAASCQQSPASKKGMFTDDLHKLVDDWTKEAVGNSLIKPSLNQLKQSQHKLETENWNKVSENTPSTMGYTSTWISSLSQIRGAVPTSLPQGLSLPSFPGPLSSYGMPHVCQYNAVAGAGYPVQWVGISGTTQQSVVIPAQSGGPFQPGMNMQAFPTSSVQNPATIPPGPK", "experiment": "SelectScreen LanthaScreen", "assay_type": "binding", "conditions": "read-out: % displacement", "in_short": "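Percent values come from Thermo SelectScreen profiling of NU5455, combining activity and binding assays. CSF1R was run in Z'LYTE format at Km app ATP, and CAMK1 in Adapta format with ATP listed at 10.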", "data": [{"smiles": "CN(C(=O)CN1CCOCC1)c1ccc2sc3c(-c4cccc5c(=O)cc(N6CC7CCC(C6)O7)oc45)cccc3c2c1", "note": "[NU5455]", "values": [{"measurement": "inhibition at 1 µM", "result": -1.2, "unit": "%"}]}]}
